According to patent US9630894B2, “Energy efficient method and apparatus for the extraction of biomolecules from dilute aqueous solution” (DYNASEP INC., priority 2012, dated 2017):

Experiments:
[1] = Distribution coefficients of ABE mixtures between DME and aqueous phase in agitated pressure vessel, HPLC; type: physicochemical
Method: The compositions of the aqueous mixtures were based on concentrations typically produced in a cellulosic fermentation.
Mixtures were charged to a pressure vessel and agitated to provide adequate contacting between the aqueous and solvent (DME) phases. Heat tape was used to control the temperature of the liquid that was measured by thermocouples. Pressure and temperature measurements were taken every five minutes. After temperature and pressure stabilization agitation was ceased and the liquid phases were allowed to fully settle.
A mass balance was also performed on each component of the ABE and BE mixtures to determine a degree of accuracy of the results.

[2] = CCC extraction with DME of clarified fermentation broth from Clostridium acetobutylicum, GC and DNS assay; type: physicochemical
Method: This example describes three different runs of the CCC with fermentation broth from Clostridium acetobutylicum. […] The fermentation was intentionally interrupted prior to completion.
The extraction column operated at room temperature (˜25° C.) throughout the column. Periodic extract and raffinate samples were taken and analyzed for the constituents in the extract and raffinate discharges.
This example describes three different runs. In all cases, the mass of solvent to the mass of feed ratio (S/F) was 0.9. In all example the fermentation broth was first centrifuged to removal all cellular matter. Thus, the feed solution was clarified. In the case of the first run, the following components were measured via gas chromatograph (GC) analysis using external standard calibration. The external standard was run prior to analyzing the samples to provide individual calibration between peak area and the respective constituent under measure. […] Acetate was the conjugate base of acetic acid. Butyrate was the conjugate base of butyric acid. All components were quantified in the extract and raffinate. Since the extract and raffinate are mostly water and DME dissolves in water to approximately 20 wt. %, the samples were allowed to degas over a 24 hour period.
During the run, samples were taken of the extract and raffinate. In the case of the extract, the bulk DME was removed by reduction of pressure and addition of heat to flash the DME from the water and other solution constituents.
Extract and raffinate samples were collected at periodic intervals during the CCC testing. […] Glucose was measured via a DNS (3,5-dinitrosalicylic acid) assay.
In cases where the extract formed a two phase solution, the extract samples were diluted with distilled water to create a single phase and homogenous sample prior to GC. The dilution factor was then used to correct the GC measurements for concentrations prior to dilution.

[3] = Run 3, Extract Bot, time 31 min
[4] = Run 3, Extract Bot, time 37 min
[5] = Run 3, Extract Top, time 31 min
[6] = Run 3, Extract Top, time 37 min

Work on O [Water, water] yielded a DC ([1]; test ABE1, […] C., 104 psig) of 0.15, a DC ([1]; test ABE2, 38.3 ° C., 102 psig) of 0.14 and a DC ([1]; test ABE3, 38.3 ° C., 103 psig) of 0.13. For the same compound, the DC ([1]; test ABE4, 38.0 ° C., 103 psig) was 0.14, the DC ([1]; test B1, […] C., 78 psig) was 0.15 and the DC ([1]; test B2, 28.2 ° C., 83 psig) was 0.11. The DC ([1]; test B3, […] C., 86 psig) was 0.11, the DC ([1]; test BE1, 30.1 ° C., 85 psig) was 0.13 and the DC ([1]; test BE2, 38.9 ° C., 107 psig) was 0.13. The DC ([1]; test BE3, 37.6 ° C., 103 psig) was 0.12 and the DC ([1]; test BE3, 38.4 ° C., 106 psig) was 0.12.
In the case of CC(C)CO [isobutanol, 2-methyl-1-propanol], the distribution coefficients compared ([2]; Run 2, isobutanol versus butanol) is reported as “approximately equal”, the “Ratio of I/N (isobutanol/n-butanol)” value [2, 3] is reported as 1.16 and the concentration in sample [2, 3] is reported as 39300 µg/mL. For the same compound, the “Ratio of I/N (isobutanol/n-butanol)” value [2, 4] was 1.15, the concentration in sample [2, 4] was 39690 µg/mL and the “Ratio of I/N (isobutanol/n-butanol)” value [2, 5] was 1.04. The concentration in sample [2, 5] was 316670 µg/mL, the “Ratio of I/N (isobutanol/n-butanol)” value [2, 6] was 1.03 and the concentration in sample [2, 6] was 328990 µg/mL. The “Ratio of I/N (isobutanol/n-butanol)” value ([2]; Run 3, Extract, time 22 min) was 0.98, the concentration in sample ([2]; Run 3, Extract, time 22 min) was 18650 µg/mL and the “Ratio of I/N (isobutanol/n-butanol)” value ([2]; Run 3, Extract, time 27 min) was 1.10. The concentration in sample ([2]; Run 3, Extract, time 27 min) was 35800 µg/mL, the “Ratio of I/N (isobutanol/n-butanol)” value ([2]; Run 3, Extract, time 43 min) was 1.07 and the concentration in sample ([2]; Run 3, Extract, time 43 min) was 35340 µg/mL. The “Ratio of I/N (isobutanol/n-butanol)” value ([2]; Run 3, Extract, time 70 min) was 1.05, the concentration in sample ([2]; Run 3, Extract, time 70 min) was 30950 µg/mL and the “Ratio of I/N (isobutanol/n-butanol)” value ([2]; Run 3, Extract, time 74 min) was 1.02. The concentration in sample ([2]; Run 3, Extract, time 74 min) was 31830 µg/mL, the “Ratio of I/N (isobutanol/n-butanol)” value ([2]; Run 3, Extract, time 78 min) was 1.01 and the concentration in sample ([2]; Run 3, Extract, time 78 min) was 33190 µg/mL. For the same compound, the “Ratio of I/N (isobutanol/n-butanol)” value ([2]; Run 3, Extract, time 82 min) was 1.02, the concentration in sample ([2]; Run 3, Extract, time 82 min) was 37480 µg/mL and the “Ratio of I/N (isobutanol/n-butanol)” value ([2]; Run 3, Feed, time 0 min) was 1.24. The concentration in sample ([2]; Run 3, Feed, time 0 min) was 11650 µg/mL, the “Ratio of I/N (isobutanol/n-butanol)” value ([2]; Run 3, Raffinate, time 22 min) was 1.34 and the concentration in sample ([2]; Run 3, Raffinate, time 22 min) was 2720 µg/mL. The “Ratio of I/N (isobutanol/n-butanol)” value ([2]; Run 3, Raffinate, time 27 min) was 1.22, the concentration in sample ([2]; Run 3, Raffinate, time 27 min) was 380 µg/mL and the “Ratio of I/N (isobutanol/n-butanol)” value ([2]; Run 3, Raffinate, time 31 min) was 1.28. For the same compound, the concentration in sample ([2]; Run 3, Raffinate, time 31 min) was 380 µg/mL, the “Ratio of I/N (isobutanol/n-butanol)” value ([2]; Run 3, Raffinate, time 37 min) was 1.29 and the concentration in sample ([2]; Run 3, Raffinate, time 37 min) was 230 µg/mL. For the same compound, the “Ratio of I/N (isobutanol/n-butanol)” value ([2]; Run 3, Raffinate, time 43 min) was 1.42, the concentration in sample ([2]; Run 3, Raffinate, time 43 min) was 230 µg/mL and the “Ratio of I/N (isobutanol/n-butanol)” value ([2]; Run 3, Raffinate, time 70 min) was 1.37. The concentration in sample ([2]; Run 3, Raffinate, time 70 min) was 430 µg/mL, the “Ratio of I/N (isobutanol/n-butanol)” value ([2]; Run 3, Raffinate, time 74 min) was 1.45 and the concentration in sample ([2]; Run 3, Raffinate, time 74 min) was 480 µg/mL. For the same compound, the “Ratio of I/N (isobutanol/n-butanol)” value ([2]; Run 3, Raffinate, time 78 min) was 1.41, the concentration in sample ([2]; Run 3, Raffinate, time 78 min) was 480 µg/mL and the “Ratio of I/N (isobutanol/n-butanol)” value ([2]; Run 3, Raffinate, time 82 min) was 1.44. For the same compound, the concentration in sample ([2]; Run 3, Raffinate, time 82 min) was 480 µg/mL.
